# Experimental data as given in PubChem BioAssay AID1963846 (Molecular Pharmacology Branch, DTP, NCI, 2024).
# Tested on: 454973-116-R2-J3-PDC complex spheroid viability
# Assay: Anticancer human tumor 454973-116-R2-J3-PDC patient-derived pancreatic carcinoma cell line growth inhibition [POLQ]
# Conditions: for IC50: curve of first compound; for viability, T/C: stronger effect = lower value
# How it was run: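 Complex spheroid viability model combining PDC tumour cells with endothelial (HUVEC) and MSC stromal cells. Novobiocin, ART-558 or RP6685 were tested singly and in combination with standard and investigational anticancer drugs. Each was titrated in half-log steps from near clinical Cmax, or from 10 microM where Cmax was unknown.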
# [1] = second compound 0.0316 µM, first compound 0.0316 µM
# [2] = second compound 0.0316 µM, first compound 0.1 µM
# [3] = second compound 0.0316 µM, first compound 0.316 µM
# [4] = second compound 0.0316 µM, first compound 1 µM
# [5] = second compound 0.0316 µM, first compound 3.16 µM
# [6] = second compound 0.0316 µM, first compound 10 µM
# [7] = second compound 0.1 µM, first compound 0.0316 µM
# [8] = second compound 0.1 µM, first compound 0.1 µM
# [9] = second compound 0.1 µM, first compound 0.316 µM
# [10] = second compound 0.1 µM, first compound 1 µM
# [11] = second compound 0.1 µM, first compound 3.16 µM
# [12] = second compound 0.1 µM, first compound 10 µM
# [13] = second compound 0.316 µM, first compound 0.0316 µM
# [14] = second compound 0.316 µM, first compound 0.1 µM
# [15] = second compound 0.316 µM, first compound 0.316 µM
# [16] = second compound 0.316 µM, first compound 1 µM
# [17] = second compound 0.316 µM, first compound 3.16 µM
# [18] = second compound 0.316 µM, first compound 10 µM
# [19] = second compound 1 µM, first compound 0.0316 µM
# [20] = second compound 1 µM, first compound 0.1 µM
# [21] = second compound 1 µM, first compound 0.316 µM
# [22] = second compound 1 µM, first compound 1 µM
# [23] = second compound 1 µM, first compound 3.16 µM
# [24] = second compound 1 µM, first compound 10 µM
# [25] = second compound 3.16 µM, first compound 0.0316 µM
# [26] = second compound 3.16 µM, first compound 0.1 µM
# [27] = second compound 3.16 µM, first compound 0.316 µM
# [28] = second compound 3.16 µM, first compound 1 µM
# [29] = second compound 3.16 µM, first compound 3.16 µM
# [30] = second compound 3.16 µM, first compound 10 µM
# [31] = second compound 10 µM, first compound 0.0316 µM
# [32] = second compound 10 µM, first compound 0.1 µM
# [33] = second compound 10 µM, first compound 0.316 µM
# [34] = second compound 10 µM, first compound 1 µM
# [35] = second compound 10 µM, first compound 3.16 µM
# [36] = second compound 10 µM, first compound 10 µM
# 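Further: spheroids exposed to drugs for seven days before measurement.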
# 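Wherever viability, T/C is given: percent viability relative to DMSO vehicle control wells taken as 100%.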
smiles,measurement,setting,value
C=CC(=O)N1CCN(c2nc(=O)n(-c3c(C)ccnc3C(C)C)c3nc(-c4c(O)cccc4F)c(F)cc23)C(C)C1 (stereo unspecified) + COC1C(OC(N)=O)C(O)C(Oc2ccc3c(O)c(NC(=O)c4ccc(O)c(CC=C(C)C)c4)c(=O)oc3c2C)OC1(C)C,IC50,second compound 0.0316 µM,> 10 µM
same,IC50,second compound 0.1 µM,> 10 µM
same,IC50,second compound 0.316 µM,> 10 µM
same,IC50,second compound 1 µM,> 10 µM
same,IC50,second compound 3.16 µM,> 10 µM
same,IC50,second compound 10 µM,> 10 µM
same,"viability, T/C",[1],108%
same,"viability, T/C",[2],106%
same,"viability, T/C",[3],97.8%
same,"viability, T/C",[4],111%
same,"viability, T/C",[5],114%
same,"viability, T/C",[6],106%
same,"viability, T/C",[7],108%
same,"viability, T/C",[8],110%
same,"viability, T/C",[9],105%
same,"viability, T/C",[10],113%
same,"viability, T/C",[11],111%
same,"viability, T/C",[12],108%
same,"viability, T/C",[13],102%
same,"viability, T/C",[14],107%
same,"viability, T/C",[15],103%
same,"viability, T/C",[16],113%
same,"viability, T/C",[17],113%
same,"viability, T/C",[18],108%
same,"viability, T/C",[19],113%
same,"viability, T/C",[20],108%
same,"viability, T/C",[21],105%
same,"viability, T/C",[22],114%
same,"viability, T/C",[23],104%
same,"viability, T/C",[24],103%
same,"viability, T/C",[25],110%
same,"viability, T/C",[26],101%
same,"viability, T/C",[27],105%
same,"viability, T/C",[28],97.9%
same,"viability, T/C",[29],111%
same,"viability, T/C",[30],102%
same,"viability, T/C",[31],101%
same,"viability, T/C",[32],104%
same,"viability, T/C",[33],99.8%
same,"viability, T/C",[34],105%
same,"viability, T/C",[35],110%
same,"viability, T/C",[36],103%
CNCc1ccc(-c2[nH]c3cc(F)cc4c3c2CCNC4=O)cc1 + Nc1ccc(C#CCN(C(=O)Cc2ncc(C(F)(F)F)cc2C(F)(F)F)c2ccc(F)cc2)nn1,IC50,second compound 0.0316 µM,> 10 µM
same,IC50,second compound 0.1 µM,> 10 µM
same,IC50,second compound 0.316 µM,> 10 µM
same,IC50,second compound 1 µM,> 10 µM
same,IC50,second compound 3.16 µM,> 10 µM
same,IC50,second compound 10 µM,> 10 µM
same,"viability, T/C",[1],114%
same,"viability, T/C",[2],101%
same,"viability, T/C",[3],109%
same,"viability, T/C",[4],94.5%
same,"viability, T/C",[5],104%
same,"viability, T/C",[6],91.9%
same,"viability, T/C",[7],103%
same,"viability, T/C",[8],96.2%
same,"viability, T/C",[9],95.8%
same,"viability, T/C",[10],90.3%
same,"viability, T/C",[11],98.2%
same,"viability, T/C",[12],95.4%
same,"viability, T/C",[13],105%
same,"viability, T/C",[14],100%
same,"viability, T/C",[15],105%
same,"viability, T/C",[16],95.6%
same,"viability, T/C",[17],101%
same,"viability, T/C",[18],95.9%
same,"viability, T/C",[19],110%
same,"viability, T/C",[20],106%
same,"viability, T/C",[21],106%
same,"viability, T/C",[22],108%
same,"viability, T/C",[23],110%
same,"viability, T/C",[24],91%
same,"viability, T/C",[25],113%
same,"viability, T/C",[26],115%
same,"viability, T/C",[27],108%
same,"viability, T/C",[28],98.7%
same,"viability, T/C",[29],121%
same,"viability, T/C",[30],90.6%
same,"viability, T/C",[31],116%
same,"viability, T/C",[32],102%
same,"viability, T/C",[33],112%
same,"viability, T/C",[34],117%
same,"viability, T/C",[35],119%
same,"viability, T/C",[36],85%
C#Cc1c(F)ccc2cc(O)cc(-c3ncc4c(N5CC6CCC(C5)N6)nc(OCC56CCCN5CC(F)C6)nc4c3F)c12 (stereo unspecified) + COC1C(OC(N)=O)C(O)C(Oc2ccc3c(O)c(NC(=O)c4ccc(O)c(CC=C(C)C)c4)c(=O)oc3c2C)OC1(C)C,IC50,second compound 0.0316 µM,0.108 µM
same,IC50,second compound 0.1 µM,0.15 µM
same,IC50,second compound 0.316 µM,0.127 µM
same,IC50,second compound 1 µM,0.104 µM
same,IC50,second compound 3.16 µM,0.131 µM
same,IC50,second compound 10 µM,0.141 µM
same,"viability, T/C",[1],72.4%
same,"viability, T/C",[2],48.9%
same,"viability, T/C",[3],40%
same,"viability, T/C",[4],31.8%
same,"viability, T/C",[5],31.9%
same,"viability, T/C",[6],23.4%
same,"viability, T/C",[7],68.2%
same,"viability, T/C",[8],55.6%
same,"viability, T/C",[9],40.1%
same,"viability, T/C",[10],30.3%
same,"viability, T/C",[11],39.8%
same,"viability, T/C",[12],25.3%
same,"viability, T/C",[13],83.9%
same,"viability, T/C",[14],52.4%
same,"viability, T/C",[15],39.2%
same,"viability, T/C",[16],29.7%
same,"viability, T/C",[17],27.8%
same,"viability, T/C",[18],26.7%
same,"viability, T/C",[19],67.3%
same,"viability, T/C",[20],52.3%
same,"viability, T/C",[21],34.7%
same,"viability, T/C",[22],38.3%
same,"viability, T/C",[23],31.1%
same,"viability, T/C",[24],27.9%
same,"viability, T/C",[25],69.7%
same,"viability, T/C",[26],53.4%
same,"viability, T/C",[27],41%
same,"viability, T/C",[28],29.8%
same,"viability, T/C",[29],32.9%
same,"viability, T/C",[30],24.2%
same,"viability, T/C",[31],63%
same,"viability, T/C",[32],56.6%
same,"viability, T/C",[33],35%
same,"viability, T/C",[34],30.1%
same,"viability, T/C",[35],26.6%
same,"viability, T/C",[36],22.6%
